Values quoted from earlier work, collected in patent US6653081B2, “Methods for monitoring antiretroviral therapy and guiding therapeutic decision in the treatment of HIV/AIDS” (ViroLogic, Inc., priority 2000, dated 2003).

Tested on: codon 181 mutant HIV-1
Settings: cited from earlier work

Row | SMILES | susceptibility / activity in the presence of the Y181C mutation
1 | CCc1cc(NCc2nc3c(Cl)ccc(Cl)c3o2)c(O)nc1C [L-697,661] | reduced susceptibility
2 | CCc1cc(CCc2nc3ccccc3o2)c(=O)[nH]c1C [L-696,229] | reduced susceptibility
